According to patent US8017784B2, “Substituted sulfoxide compounds, methods for preparing the same and use thereof” (Livzon Pharmaceutical Group, Inc., priority 2005, dated 2011):

System: Acute Gastric Ulcer of Rats
Assay: Effect on acute gastric ulcer of rats (pyloric ligation method, Shay method)
Format: in vivo
Settings: for Average Volume of Gastric Juice / Index of Ulcer (sum of the long diameter of each ulcer) / Inhibition Ratio of index of ulcer / Inhibition Ratio of gastric juice: SD female rats, 3 mg/kg via duodenum; for Average Volume of Gastric Juice / Index of Ulcer (sum of the long diameter of each ulcer): 6 hours after dosing; for Inhibition Ratio of index of ulcer / Inhibition Ratio of gastric juice: 6 hours, versus control group; for Inhibition of gastric juice secretion and ulceration compared with racemate: rats, result in words
Experimental: The effect of optically pure (+)/(−)-5-(1H-pyrrol-1-yl)-2-[[(4-methoxy-3-methyl-2-pyridyl)-methyl]sulfinyl]-1-hydro-benzimidazole on the acute gastric ulcer of rats were investigated using a pyloric ligation method (Shay method), and the results were compared with a normal control group and a racemate group. The specific test methods were as follows.
Twenty-six healthy SD female adult rats were divided randomly into 4 groups and fasted, except water, for 24 hours. Each rat was then anesthesized with 30 mg/kg Sodium Pentobarbital and subjected to pyloric ligation. After that, 3 groups of rats (treated group) were administered immediately via dodecadactylon with a racemate, a levo-enantiomer and a dextro-enantiomer of 5-(1H-pyrrol-1-yl)-2-[[(4-methoxy-3-methyl-2-pyridyl)-methyl]sulfinyl]-1-hydro-benzimidazole, respectively, at a dose of 3 mg/kg, and the other group (control group) is administered with the same volume of solvent.
All rats were then fasted including water for 6 hours followed by being sacrificed. The stomach was removed from rats after cardiac orifice ligation, and the volume of gastric juice was collected. After being fixed with 10% formalin solution, the stomach was incised along the greater curvature of stomach, the gastric wall was unwraped, and the degree and number of ulcers of the gastric mucosa were observed visually. Sum of the long diameter of each ulcer was defined as the index of ulcer. All rats were housed in metabolic cages during the test.

| SMILES | Average Volume of Gastric Juice (3 mg/kg) [mL] | Index of Ulcer (sum of the long diameter of each ulcer) (3 mg/kg) [mm] | Inhibition Ratio of index of ulcer [%] | Inhibition Ratio of gastric juice (3 mg/kg) [%] | Inhibition of gastric juice secretion and ulceration compared with racemate (3 mg/kg) | Inhibition Ratio of index of ulcer (3 mg/kg) [%] |
| --- | --- | --- | --- | --- | --- | --- |
| COc1ccnc(C[S+]([O-])c2nc3cc(-n4cccc4)ccc3[nH]2)c1C (single isomer, unassigned; (-)) [Levo-enantiomer, (−)-5-(1H-pyrrol-1-yl)-2-[[(4-methoxy-3-methyl-2-pyridyl)-methyl]sulfinyl]-1-hydro-benzimidazole] | 1.4 ± 1.0 | 6 ± 6 | 75.6 | 68.3 | more effective in inhibiting gastric juice secretion and ulceration as compared with their racemate | – |
| COc1ccnc(C[S+]([O-])c2nc3cc(-n4cccc4)ccc3[nH]2)c1C (single isomer, unassigned; (+)) [Dextro-enantiomer, (+)-5-(1H-pyrrol-1-yl)-2-[[(4-methoxy-3-methyl-2-pyridyl)-methyl]sulfinyl]-1-hydro-benzimidazole] | 2.6 ± 1.1 | 6 ± 7 | 75.6 | 43.2 | more effective in inhibiting gastric juice secretion and ulceration as compared with their racemate | – |
| COc1ccnc(C[S+]([O-])c2nc3cc(-n4cccc4)ccc3[nH]2)c1C (racemic) [Racemate, 5-(1H-pyrrol-1-yl)-2-[[(4-methoxy-3-methyl-2-pyridyl)-methyl]sulfinyl]-1-hydro-benzimidazole, reference compound] | 3.2 ± 2.3 | 14 ± 8 | – | 30.8 | – | 41.8 |
